The values below come from publication PMC6135396, “Repurposing antimalarial aminoquinolines and related compounds for treatment of retinal neovascularization” (PLoS ONE, 2018).

SMILES strings stand for the structures.

The nature of data set [1]: Hepatic microsome stability, mouse. It counts as in vitro ADME. The settings on record: liver microsomes, pH 7.4, single phase, read-out: Hepatic microsome stability T1/2. The protocol:
(§1) Hepatic microsomes stability assays were performed as reported before. […] After preincubation at 37°C for 10 min, enzyme reactions were initiated by adding 120 μL of NADPH-generating system (2 mM NADP^+, 10 mM glucose-6-phosphate, 0.4 U/ml glucose-6-phosphate dehydrogenase, and 5 mM MgCl2) in the presence of 100 mM potassium phosphate buffer (pH 7.4). The final concentration of each model compound used was 1 μM. The microsomal concentrations used were 1.0 mg/mL. Compounds were incubated in microsomes for 0, 5, 15, 30 and 60 min. The reactions were stopped by the addition of ice cold ACN and the reaction mixtures were centrifuged at 10,000g for 10 min before the supernatant was removed for analysis.
(§2) Except for the primary assay in the HTS campaign, all experiments were repeated at least three times. Results are expressed as mean ± SEM. The Mann-Whitney test was used to determine statistical significance of the densitometry data of Western blot analysis. Unpaired two-tailed Student’s t-test was performed for the significance of the results of ELISA and in vitro tubule formation assay. ANOVA was used to determine the significance in vivo CNV models using the Tukey post-hoc test for multiple comparisons. […] T1/2 was calculated using the best fit curve resulting from non-linear (human) or linear (mouse and rat) regression analyses using Prism 7.
On the technique in general: Liver microsomes are vesicles of endoplasmic reticulum, rich in cytochrome P450 enzymes.

Data set [2] has as its system human retinal microvascular endothelial cells (HRECs). The experiment in a line: In vitro HREC tube formation assay. It counts as cell-based. The protocol:
In vitro tube formation assays were carried out as previously described. Briefly, near confluent microvascular endothelial cells were pretreated with VEGF (100 ng/ml) for 2 h and then treated for 24 h with test compounds at serial concentrations, as indicated. Cells without VEGF treatment or with VEGF only were used as control. The cells were then detached and plated sparsely (2.5 ×10^4/well) on 24-well plates coated with 12.5% (v/v) Matrigel (BD, Franklin Lakes, NJ) and left overnight. The medium was then aspirated and 250 μl/well of 12.5% Matrigel was overlaid on the cells for 2 h to allow the polymerization of Matrigel, followed by addition of 500 μl/well of basal medium MCD131 with 10% fetal calf serum (FCS) for 24 h. The following day, the culture plates were observed under a phase contrast microscope and photographed at random in five fields (×10). The tubule length (mm/mm^2) per microscope field was quantified.

The nature of a further data set: Plasma stability, rat. It counts as in vitro ADME.
Data set [3] in a line: Hepatic microsome stability, human. In kind it is in vitro ADME. The settings on record: liver microsomes, pH 7.4, terminal half-life of a two-phase exponential decay, read-out: Hepatic microsome stability T1/2. The procedure:
as §1, §2

A short description of another data set: Plasma stability, human. In kind it is in vitro ADME.
Data set [4] in a line: Hepatic microsome stability, rat. In kind it is in vitro ADME. To be noted: liver microsomes, pH 7.4, single phase, read-out: Hepatic microsome stability T1/2. The procedure:
as §1, §2

The nature of data set [5]: Plasma-protein binding, human. It counts as in vitro ADME.
A short description of a further data set: Plasma stability, mouse. It counts as in vitro ADME.
The nature of data set [6]: Plasma-protein binding, mouse. It counts as in vitro ADME.
Data set [7] is described as follows: Tissue distribution in the mouse eye after intravitreal injection. To be noted: 7 d after IVT administration. In kind it is in vivo. The procedure:
Mice were assigned to groups (n = 6/group) that received either 50 μg compound, or vehicle via intravitreal injection (1 μl volume). One day after injection, ½ of the mice (n = 3 / group) mice were euthanized. The eyes were enucleated and the vitreous humor, retina, and RPE/Choroid/sclera were isolated and snap frozen in liquid N2. The remaining mice in each treatment group (n = 3 / group) were euthanized and the same tissues collected. The quantity of compound in the tissues (n = 6 eyes / treatment group) was measured using LC-MS/MS.

The next data set concerns the target T1, APJ (Homo sapiens, UniProt P35414).
T1 sequence (P35414 1-380): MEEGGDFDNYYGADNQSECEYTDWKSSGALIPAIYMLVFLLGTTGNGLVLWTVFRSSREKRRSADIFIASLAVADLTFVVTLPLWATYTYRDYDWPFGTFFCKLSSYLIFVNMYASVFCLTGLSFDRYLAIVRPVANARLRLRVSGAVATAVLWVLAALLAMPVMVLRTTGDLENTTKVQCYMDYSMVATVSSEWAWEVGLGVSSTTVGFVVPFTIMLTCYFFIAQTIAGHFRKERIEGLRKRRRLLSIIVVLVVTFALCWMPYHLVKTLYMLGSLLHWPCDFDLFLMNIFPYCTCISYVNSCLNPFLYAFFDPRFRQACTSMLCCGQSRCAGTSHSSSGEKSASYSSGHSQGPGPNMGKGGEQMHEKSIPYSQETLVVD
The experiment in a line: Radioligand competition binding assay, [125I]-Glp65, Nle75, Tyr77-Ap13 on APJ membranes. On the set-up: purchased Perkin Elmer. The settings on record: tested as high as 100 μM. In general terms: Displacement assays read how much labelled ligand stays bound in the presence of the test substance.

Method for APJ: Soaking buffer (300 μl/well) was added to a 96-well GF/C filter plate (MultiScreen Harvest plate, Millipore) and left to equilibrate at room temperature for 3 h. […] Following incubation, contents were transferred from the OptiPlate to the pre-wet GF/C filter plate, and immediately underwent vacuum filtration. The filter plate was washed five times with 200 μl ice cold wash buffer and left at room temperature overnight to equilibrate. The next day, 20 μl scintillation liquid (Microscint 20, Perkin Elmer) was added and radioactivity quantified using a TopCount NXT (Perkin Elmer) microplate scintillation and luminescence counter. […] The Cheng & Prusoff equation was used to convert IC50 estimates to equilibrium dissociation constants [89].

Take `CCN(CC)Cc1cc(Nc2ccnc3cc(Cl)ccc23)ccc1O` [AQ, amodiaquine]: the half-life at 1 μM in data set [1] was determined as 39.8 min; in data set [3] it was 17 min; in data set [4], 38.9 min. In addition, the “Effect on Ap13-dependent increase in HREC tube formation” value in data set [2] (Ap13-induced, concentration-dependent) was “blocked Ap13-dependent increases in tube formation”. In addition, the “Effect on VEGF-induced HREC tube formation” value in data set [2] (VEGF 100 ng/mL, absence of exogenous Ap13) is “blocked VEGF-induced tube formation”. Moreover, the Plasma stability worked out at 46.3 % remaining at 3 hrs in “Plasma stability, rat”; 37.3 % remaining at 3 hrs in the data set “Plasma stability, human”; 36.1 % remaining at 3 hrs in “Plasma stability, mouse”. Also, the Plasma-protein binding in data set [5] (1 μM) came to 88.2 % bound; in [5] (10 μM), 83.8 % bound; in [6] (1 μM), 81.9 % bound; in data set [6] (10 μM), 70.8 % bound. Moreover, the “AQ level in plasma” value in [7] is on record as “No detectable levels”. Besides, on APJ, the “Displacement of [125I]-Glp65, Nle75, Tyr7-Ap13 binding” value is reported as “did not displace”.
